The source made the active and inactive calls. No cut-off for these calls is given here.
Columns and labels:
Assay type in all cases: functional, organism-based
MDA-MB-435 = assay: Antitumor activity against human MDA-MB-435 cells xenografted in mouse assessed as tumor cell killing at 2.35 mg/kg, ip qd for 4 days by MTT assay; parameters: dose 2.35 mg/kg
OVCAR-5 = assay: Antitumor activity against human OVCAR5 cells xenografted in mouse assessed as tumor cell killing at 2.35 mg/kg, ip qd for 4 days by MTT assay; parameters: dose 2.35 mg/kg
UACC-62 = assay: Antitumor activity against human UACC62 cells xenografted in mouse assessed as tumor cell killing at 3.1 mg/kg, ip qd for 4 days by MTT assay; parameters: dose 3.1 mg/kg

Row | SMILES | Activity (MDA-MB-435) | Activity (OVCAR-5) | Activity (UACC-62)
1 | C/C=C1\NC(=O)[C@H](Cc2ccccc2)NC(=O)[C@@H](C(C)C)NC(=O)[C@@H]([C@@H](C)CC)NC(=O)[C@H](NC(=O)[C@H](NC(=O)[C@H](CCCNCc2ccc(N3CCOCC3)cc2)NC(=O)[C@H]2CCCN2C(=O)[C@H](NC(=O)[C@@H](NC(=O)[C@@H](NC(=O)[C@H](NC(=O)CCCC(C)C)C(C)C)[C@@H](C)O)C(C)C)C(C)C)[C@@H](C)CC)[C@@H](C)OC(=O)[C@H](C(C)C)NC1=O | inactive | inactive | 
2 | C/C=C1\NC(=O)[C@H](Cc2ccccc2)NC(=O)[C@@H](C(C)C)NC(=O)[C@@H]([C@@H](C)CC)NC(=O)[C@H](NC(=O)[C@H](NC(=O)[C@H](CCCNCc2ccc(F)c(C)c2)NC(=O)[C@H]2CCCN2C(=O)[C@H](NC(=O)[C@@H](NC(=O)[C@@H](NC(=O)[C@H](NC(=O)CCCC(C)C)C(C)C)[C@@H](C)O)C(C)C)C(C)C)[C@@H](C)CC)[C@@H](C)OC(=O)[C@H](C(C)C)NC1=O |  |  | inactive

Source: ChEMBL document CHEMBL1921722, “In vitro and in vivo evaluation of select kahalalide F analogs with antitumor and antifungal activities” (Bioorg Med Chem, 2011)
